Laboratory results reported in PMC6691788, “Design and synthesis of phthalazine-based compounds as potent anticancer agents with potential antiangiogenic activity via VEGFR-2 inhibition” (Journal of Enzyme Inhibition and Medicinal Chemistry, 2019).
pIC50: −log10 of the molar value. Like-named read-outs stand apart in the source and are kept apart here.

What was measured:
VEGFR-2 = conditions: cited from earlier work
VEGFR-2 tyrosine kinase = target: T1, VEGFR-2 tyrosine kinase (Homo sapiens, UniProt P35968); assay: In vitro VEGFR-2 tyrosine kinase assay (BPS Bioscience); format: biochemical; conditions: for pIC50: 10 μM ATP/0.2 mg/ml poly-Glu-Tyr; for inhibition at 10 µM: read-out: VEGFR-2 % inhibition, 10 μM concentration
T1 construct: purchased BPS Bioscience 40301
Experimental: The VEGFR tyrosine kinase assays were performed at BPS Bioscience (www.bpsbioscience.com). All the synthesised compounds representing the six series were evaluated for their ability to inhibit VEGFR-2 tyrosine kinase at single dose of 10 µM.
The VEGFR tyrosine kinase activity at single dose concentration of 10 μM was carried out by BPS Bioscience (www.bpsbioscience.com). VEGFR (BPS#40301) served as the enzyme source and Poly (Glu, Tyr) sodium salt, (4:1, Glu:Tyr) (Sigma#P7244) served as the standardized substrate & Kinase-Glo Plus Luminescence kinase assay kit (Promega#V3772). The IC50 determination was carried out where quality control testing is routinely performed on each of the targets to insure compliance to acceptable standards. ^33P-ATP was purchased from Perkin Elmer and ADP-Glo^TM was purchased from Promega. All other materials were of standard laboratory grade.
The VEGFR tyrosine kinase activity was performed using Kinase-Glo Plus luminescence kinase assay kit (Promega). It measures kinase activity by quantitating the amount of ATP remaining in solution following a kinase reaction. The luminescent signal from the assay is correlated with the amount of ATP present and is inversely correlated with the amount of kinase activity. The compounds were diluted to 100 μM in 10% DMSO and […] of the dilution was added to a […] reaction so that the final concentration of DMSO is 1% in all of reactions. All of the enzymatic reactions were conducted at 30 °C for 40 min. The 50 μl reaction mixture contains […], pH 7.4, […], 0.1 mg/ml BSA, 0.2 mg/ml Poly (Glu, Tyr) substrate, 10 μM ATP and VEGFR. After the enzymatic reaction, […] of Kinase-GloPlus Luminescence kinase assay solution (Promega) was added to each reaction and incubate the plate for 5 min at room temperature. Luminescence signal was measured using a BioTek Synergy 2 microplate reader. The protein kinase assays used to determine IC50 value were performed using ADP-GloTM assay kit from Promega which measures the generation of ADP by the protein kinase. Generation of ADP by the protein kinase reaction leads to an increase in luminescence signal in the presence of ADP-GloTM assay kit. The assay was started by incubating the reaction mixture in a 96-well plate at 30 °C for 30 min. After the 30 min incubation period, the assay was terminated by the addition of […] of ADP-GloTM Reagent (Promega). The 96 well plate was shaken and then incubated for 40 min at ambient temperature. […] of Kinase detection reagent was added, the 96-well reaction plate was then read using the ADP-Glo Luminescences Protocol on a GloMax plate reader (Promega: Catalog #E7031). Blank control was set up that included all the assay components except the addition of appropriate substrate (replace with equal volume of kinase assay buffer). The corrected activity for each protein kinase target was determined by removing the blank control value.
VEGFR activity assays were performed in duplicate at each concentration. The luminescence data were analyzed using the computer software, Graphpad Prism. The difference between luminescence intensities in the absence of VEGFR (Lut) and in the presence of VEGFR (Luc) was defined as 100% activity (Lut - Luc). […] IC50 determination for inhibitor against VEGFR was estimated by generating a graph of log inhibitor vs normalized response with variable using the Prism software.

HUVEC = assay: In vitro HUVEC anti-proliferative assay (alamarBlue); format: cell-based, human; conditions: HUVEC proliferation, single dose 10 µM, 72 hours; for inhibition at 10 µM: Homo sapiens, read-out: % Cell inhibition
Experimental: The assay was performed at single dose concentration of 10 µM, where HUVEC umbilical vein endothelial cells, human (Life Technologies # C-003-5C) served as the cells’ source, in Medium 200 (Life Technologies # M-200-500), with large vessel endothelial supplement (LVES) (Life Technologies # A14608-01) and Pen-step (Hyclone # SV30010). AlamarBlue (Life Technologies # DAL1025) was used as the fluorescent reagent.
HUVEC cells were cultured in Medium 200 with 2% LVES and 1% Pen-strep. To perform the proliferation assay, HUVEC cells were seeded at 5000 cells/ 50µl /well in a 96-well black clear-bottom tissue culture plate. Cells were incubated at 37°C and 5% CO2 overnight to allow them to recover and reattach.
Next day cells were treated with test compounds for 72 hours. After treatment, cell proliferation was measured by Fluorescent quantitation of alamarBlue reagent. The alamarBlue assay incorporates a fluorometric/colorimetric growth indicator based on detection of metabolic activity. Specifically, resazurin, the active ingredient in the alamarBlue reagent, is blue in color and virtually non-fluorescent. Upon entering cells, resazurin is reduced to resorufin, a compound that is red in color and highly fluorescent. Continued cell growth maintains a reduced environment, therefore increasing the overall fluorescence and color of the media surrounding cells. […] To perform the alamarBlue assay, 10 µl of alamarBlue reagent was added to each well and the plate was incubated at 37°C for an additional 2 hours. Fluorescence intensity was measured at an excitation of 530 nm and an emission of 590 nm using a BioTek Synergy^TM 2 microplate reader.
Cell proliferation assays were performed in triplicate at each concentration. The fluorescent intensity data were analyzed using the computer software, Graphpad Prism. In the absence of the compound, the fluorescent intensity (Ft) in each data set was defined as 100%. In the absence of cells, the fluorescent intensity (Fb) in each data set was defined as 0%. The percent cell in the presence of each compound was calculated according to the following equation: %cell = (F-Fb)/(Ft-Fb), where F= the fluorescent intensity in the presence of the compound, Fb= the fluorescent intensity in the absence of cells, and Ft = the fluorescent intensity in the absence of the compound.

HCT-116 = assay: In vitro cytotoxic activity, SRB assay; format: cell-based; conditions: Homo sapiens; HCT-116, 48h
Experimental: (§1) In addition, compounds (12a, 12b, 12c, 16b, 16c and 17b) were evaluated against a third cell line (HepG-2) These first two cell lines were selected based on the sensitivity of the previously NCI-tested derivatives towards them amongst the 60 NCI panel. The growth inhibition is expressed as the median growth inhibitory concentration (IC50) which corresponds to the concentration required for 50% inhibition of cell viability and are provided in (Table S6 in supplementary material).
(§2) 5,000 cells in fresh medium were seeded in 96-well microlitre plates and left to attach for 24h. Cells were incubated with the tested compounds at concentration range from 0,1,2.5,5,10 µg/ml and incubation was continued for48h. After 48h treatment,the cells were fixed with 50µl cold 50% trichloroacetic acid (TCA )for 1h at 4 °C. Wells were then washed 5 times with water and stained for 30 min at room temperature with 50µl of 0.4%SRB dissolved in 1% acetic acid. The wells were then washed 4 times with 1% acetic acid. The plates were air dried and the dye was solubilized with 100µl/well of 10mM tris base (pH 10.5) for 5min on a shaker (Orbital Shaker OS 20,Boeco,Germany) at 1600 rpm. The optical density (O.D.)of each well was measured spectrophotometrically at 564 nm with an enzyme linked immunosorbent assay( ELIZA) micraplate reader (Tecan Sunrise,Austria).The mean back ground absorbance was subtracted automatically and mean values for each drug concentration was calculated.
(§3) The percentage of cell survival was calculated as follows:
(§4) Survival fraction =O.D.(treated cells)/O.D.(control cells)
(§5) The IC50 value (the concentration required to produce 50% inhibition of cell growth) was calculated using sigmodial dose response curve-fitting models (GraphPad,Prizm software incorporated). Each concentration was repeated 3 times.

HepG-2 = assay: In vitro cytotoxic activity, SRB assay; format: cell-based; conditions: Homo sapiens, HepG2; HepG-2, 48h
Experimental: as §1, §2, §3, §4, §5

MCF-7 = assay: In vitro cytotoxic activity, SRB assay; format: cell-based; conditions: Homo sapiens, MCF7; MCF-7, 48h
Experimental: as §1, §2, §3, §4, §5

VEGFR-3 = system: VEGFR-3; design: method as in PMID 24565910; conditions: cited from earlier work

T1 sequence (P35968 20-1356): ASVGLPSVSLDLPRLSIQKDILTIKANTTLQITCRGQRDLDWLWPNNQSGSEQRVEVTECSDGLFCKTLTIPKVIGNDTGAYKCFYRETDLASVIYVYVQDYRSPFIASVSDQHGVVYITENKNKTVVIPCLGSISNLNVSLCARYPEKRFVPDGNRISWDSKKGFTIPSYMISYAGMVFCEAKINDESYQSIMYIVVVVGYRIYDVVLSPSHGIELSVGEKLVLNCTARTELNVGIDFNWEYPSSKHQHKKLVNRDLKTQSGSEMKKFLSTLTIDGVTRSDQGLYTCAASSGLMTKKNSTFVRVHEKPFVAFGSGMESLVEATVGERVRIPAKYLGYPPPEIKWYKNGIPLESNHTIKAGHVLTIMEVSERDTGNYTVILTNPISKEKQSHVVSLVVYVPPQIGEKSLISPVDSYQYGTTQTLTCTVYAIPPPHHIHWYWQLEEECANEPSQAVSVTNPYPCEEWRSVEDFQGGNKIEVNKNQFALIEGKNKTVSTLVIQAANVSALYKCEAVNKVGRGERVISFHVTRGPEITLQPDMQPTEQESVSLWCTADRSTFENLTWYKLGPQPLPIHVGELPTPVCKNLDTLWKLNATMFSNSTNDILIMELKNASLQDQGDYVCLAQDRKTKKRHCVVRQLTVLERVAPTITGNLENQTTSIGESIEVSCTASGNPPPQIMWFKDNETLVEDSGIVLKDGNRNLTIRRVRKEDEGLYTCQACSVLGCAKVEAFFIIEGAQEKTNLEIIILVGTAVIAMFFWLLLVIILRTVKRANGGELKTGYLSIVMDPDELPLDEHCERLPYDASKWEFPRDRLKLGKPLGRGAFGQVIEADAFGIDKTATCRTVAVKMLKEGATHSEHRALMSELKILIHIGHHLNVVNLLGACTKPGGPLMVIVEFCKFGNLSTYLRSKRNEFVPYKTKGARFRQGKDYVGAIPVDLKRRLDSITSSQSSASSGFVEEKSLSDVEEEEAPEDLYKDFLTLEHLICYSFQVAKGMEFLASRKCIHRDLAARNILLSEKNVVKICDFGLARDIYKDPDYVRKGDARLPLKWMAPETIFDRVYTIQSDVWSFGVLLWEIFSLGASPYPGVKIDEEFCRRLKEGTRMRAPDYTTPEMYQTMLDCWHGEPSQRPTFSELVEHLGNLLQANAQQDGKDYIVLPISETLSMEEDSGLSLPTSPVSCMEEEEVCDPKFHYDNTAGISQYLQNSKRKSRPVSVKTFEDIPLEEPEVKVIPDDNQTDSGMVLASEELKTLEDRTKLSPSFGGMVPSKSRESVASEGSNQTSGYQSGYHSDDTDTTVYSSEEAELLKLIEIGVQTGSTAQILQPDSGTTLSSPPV

pIC50 (VEGFR-2 tyrosine kinase)	inhibition at 10 µM (VEGFR-2 tyrosine kinase)	melting point	Structure (SMILES)	pIC50 (VEGFR-2; Figure 1, known VEGFR-2 kinase inhibitors, read-out: IC50)	% Cell growth (HUVEC)	inhibition at 10 µM (HUVEC)	pIC50 (HCT-116)	pIC50 (HepG-2)	pIC50 (MCF-7)	pIC50 (VEGFR-3)	pIC50 (VEGFR-2; read-out: IC50 VEGFR-2)
–	–	–	c1ccc(Cc2cnc(N3CCN(c4ncnc5ccccc45)CC3)nc2)cc1 [(VI)]	8.47	–	–	–	–	–	–	–
5.36	70%	236 to 238 °C	O=C(Nc1ccc(Cl)cc1)Nc1ccc(Nc2nnc(Cl)c3ccccc23)cc1 [Compound 12b, 1–(4-Chlorophenyl)-3–(4-(4-chlorophthalazin-1-ylamino)phenyl)urea]	–	20.17%	79.8%	3.76	3.76	3.81	–	–
5.57	78%	187 to 189 °C	O=C(Nc1ccc(Nc2nnc(Cl)c3ccccc23)cc1)Nc1ccc(Cl)c(C(F)(F)F)c1 [Compound 12c, 1–(4-Chloro-3-(trifluoromethyl)phenyl)-3–(4-(4-chlorophthalazin-1-ylamino)phenyl)-urea]	–	27.42%	72.6%	3.14	< 3.00	< 3.00	–	–
–	–	–	CNC(=O)c1cc(COc2nnc(Nc3ccc(Cl)cc3)c3ccoc23)ccn1 [Telatinib (V), telatinib]	–	–	–	–	–	–	8.40	8.22
